SMILES strings stand for the structures.

One assay has as its target T1, recombinant human GR (Homo sapiens, UniProt P04150).
T1 construct: purchased Panvera/Invitrogen P2812 (kit P2893)
T1 sequence (P04150 1-777): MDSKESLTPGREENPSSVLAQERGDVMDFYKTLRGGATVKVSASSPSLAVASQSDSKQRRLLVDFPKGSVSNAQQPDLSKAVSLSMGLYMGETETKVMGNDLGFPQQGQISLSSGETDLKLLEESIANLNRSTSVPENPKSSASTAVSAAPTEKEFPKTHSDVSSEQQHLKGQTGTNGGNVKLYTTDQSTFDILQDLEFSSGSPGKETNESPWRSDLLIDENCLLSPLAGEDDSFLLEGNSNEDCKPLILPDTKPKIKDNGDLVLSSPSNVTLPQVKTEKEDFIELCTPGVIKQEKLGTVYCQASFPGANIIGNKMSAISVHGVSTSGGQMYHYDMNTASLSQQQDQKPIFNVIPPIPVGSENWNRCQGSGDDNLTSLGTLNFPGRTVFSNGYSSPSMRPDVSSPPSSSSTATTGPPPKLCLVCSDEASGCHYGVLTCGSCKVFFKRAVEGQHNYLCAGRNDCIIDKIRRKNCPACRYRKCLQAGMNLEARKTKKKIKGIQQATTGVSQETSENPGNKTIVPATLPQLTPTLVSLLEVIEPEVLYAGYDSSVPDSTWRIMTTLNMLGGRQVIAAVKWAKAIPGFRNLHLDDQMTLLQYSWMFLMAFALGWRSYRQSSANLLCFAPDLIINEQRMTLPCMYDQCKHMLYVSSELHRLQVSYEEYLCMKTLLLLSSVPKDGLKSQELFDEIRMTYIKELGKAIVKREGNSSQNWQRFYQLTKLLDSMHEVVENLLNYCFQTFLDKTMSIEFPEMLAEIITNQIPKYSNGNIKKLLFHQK
The experiment in a line: Human Glucocorticoid Receptor (GR) Assay (fluorescence polarization, Panvera/Invitrogen kit). It is filed as binding.
Conditions: not given
Here is the method:
Human Glucocorticoid Receptor (GR) Assay
The assay is based on a commercial kit from Panvera/Invitrogen (Part number P2893). The assay technology is fluorescence polarization. […] The GR and Stabilizing Peptide reagents are stored at −70° C. while the GS Red is stored at −20° C. Also included in the kit are 1M DTT (Panvera, Part number P2325, stored at −20° C.) and GR Screening buffer 10× (Panvera, Part number P2814, stored at −70° C. initially but once thawed stored at room temperature). Avoid repeated freeze/thaws for all reagents. The GR Screening buffer 10× comprises 100 mM potassium phosphate, 200 mM sodium molybdate, 1 mM EDTA and 20% DMSO.
0% control was 100% DMSO and 100% control was 10 μM Dexamethasone. Background solution (8 μL; assay buffer 10×, Stabilizing Peptide, DTT and ice cold MQ water) was added to the background wells. GS Red solution (7 μL; assay buffer 10×, Stabilizing Peptide, DTT, GS Red and ice cold water) was added to all wells except background wells. GR solution (7 μL; assay buffer 10×, Stabilizing Peptide, DTT, GR and ice cold water) was added to all wells. The plate was sealed and incubated in a dark at room temperature for 2 hours.
`C[C@]12Cc3cnn(-c4ccc(F)cc4)c3C=C1CC[C@@H]1[C@@H]2[C@@H](O)C[C@@]2(C)[C@H]1CC[C@]2(OC(=O)CF)C(=O)SCC#N` [Example 27, (1R,3aS,3bS,10aR,10bS,1,1S,12aS)-1-{[(Cyanomethyl)thio]carbonyl}-7-(4-fluoro-phenyl)-11-hydroxy-10a,12a-dimethyl-1,2,3,3a,3b,4,5,7,10,10a,10b,11,12,12a-tetradecahydrocyclopenta[5,6]naphtho[1,2-f]indazol-1-yl fluoroacetate]: the concentration for half-maximal inhibition (IC50) (commonly the concentration at which inhibition is half-maximal) turned out to be 3 nM.

Consider `C[C@]12Cc3cnn(-c4ccc(F)cc4)c3C=C1CC[C@@H]1[C@@H]2[C@@H](O)C[C@@]2(C)[C@H]1CC[C@]2(OC(=O)CF)C(=O)SCF` [Example 28, (1R,3aS,3bS,10aR,10bS,11S,12aS)-1-{[(Fluoromethyl)thio]carbonyl}-7-(4-fluoro-phenyl)-11-hydroxy-10a,12a-dimethyl-1,2,3,3a,3b,4,5,7,10,10a,10b,11,12,12a-tetradecahydrocyclopenta[5,6]naphtho[1,2-f]indazol-1-yl fluoroacetate], for which the IC50 was determined as 4.2 nM.

Still in this assay, the particulars now being: fluorescence polarization; GS Red tracer; 2 hours at room temperature; 100% control 10 μM Dexamethasone; read-out: Inhibition of GR binding, IC50.
Regarding `CCC(=O)O[C@]1(C(=O)SCC2CC2)CC[C@H]2[C@@H]3CCC4=Cc5c(cnn5-c5ccc(F)cc5)C[C@]4(C)[C@H]3[C@@H](O)C[C@@]21C` [Example 25, (1R,3aS,3bS,10aR,10bS,11S,12aS)-1-{[(Cyclopropylmethyl)thio]carbonyl}-7-(4-fluorophenyl)-11-hydroxy-10a,12a-dimethyl-1,2,3,3a,3b,4,5,7,10,10a,10b,11,12,12a-tetradecahydrocyclopenta[5,6]naphtho[1,2-f]indazol-1-yl propanoate], the IC50 turned out to be 10 nM.

As to `CCC(=O)O[C@]1(C(=O)SCCF)CC[C@H]2[C@@H]3CCC4=Cc5c(cnn5-c5ccc(F)cc5)C[C@]4(C)[C@H]3[C@@H](O)C[C@@]21C` [Example 26, (1R,3aS,3bS,10aR,10bS,11S,12aS)-1-{[(2-Fluoroethyl)thio]carbonyl}-7-(4-fluoro-phenyl)-11-hydroxy-10a,12a-dimethyl-1,2,3,3a,3b,4,5,7,10,10a,10b,11,12,12a-tetradecahydrocyclopenta[5,6]naphtho[1,2-f]indazol-1-yl propanoate], the IC50 came out at 4.3 nM.

For `CC(=O)OCC(=O)O[C@]1(C(=O)SCC#N)CC[C@H]2[C@@H]3CCC4=Cc5c(cnn5-c5ccc(F)cc5)C[C@]4(C)[C@H]3[C@@H](O)C[C@@]21C` [Example 29, (1R,3aS,3bS,10aR,10bS,11S,12aS)-1-{[(Cyanomethyl)thio]carbonyl}-7-(4-fluoro-phenyl)-11-hydroxy-10a,12a-dimethyl-1,2,3,3a,3b,4,5,7,10,10a,10b,11,12,12a-tetradecahydrocyclopenta[5,6]naphtho[1,2-f]indazol-1-yl (acetyloxy)acetate], the 50% inhibitory concentration (IC50) is 5.7 nM.

On to `COCC(=O)O[C@]1(C(=O)SCC#N)CC[C@H]2[C@@H]3CCC4=Cc5c(cnn5-c5ccc(F)cc5)C[C@]4(C)[C@H]3[C@@H](O)C[C@@]21C` [Example 30, (1R,3aS,3bS,10aR,10bS,11S,12aS)-1-{[(Cyanomethyl)thio]carbonyl}-7-(4-fluoro-phenyl)-11-hydroxy-10a,12a-dimethyl-1,2,3,3a,3b,4,5,7,10,10a,10b,11,12,12a-tetradecahydrocyclopenta[5,6]naphtho[1,2-f]indazol-1-yl methoxyacetate], for which the IC50 amounted to 3.1 nM.

As to `COCC(=O)O[C@]1(C(=O)SCC#CCO)CC[C@H]2[C@@H]3CCC4=Cc5c(cnn5-c5ccc(F)cc5)C[C@]4(C)[C@H]3[C@@H](O)C[C@@]21C` [Example 31, (1R,3aS,3bS,10aR,10bS,11S,12aS)-7-(4-Fluorophenyl)-11-hydroxy-1-{[(4-hydroxy-but-2-yn-1-yl)thio]carbonyl}-10a,12a-dimethyl-1,2,3,3a,3b,4,5,7,10,10a,10b,11,12,12a-tetradecahydrocyclopenta[5,6]naphtho[1,2-f]indazol-1-yl methoxyacetate], the half-maximal inhibitory concentration (IC50) came to 4.5 nM.

For the compound `COCC(=O)O[C@]1(C(=O)SCCO)CC[C@H]2[C@@H]3CCC4=Cc5c(cnn5-c5ccc(F)cc5)C[C@]4(C)[C@H]3[C@@H](O)C[C@@]21C` [Example 32, (1R,3aS,3bS,10aR,10bS,11S,12aS)-7-(4-Fluorophenyl)-11-hydroxy-1-{[(2-hydroxy-ethyl)thio]carbonyl}-10a,12a-dimethyl-1,2,3,3a,3b,4,5,7,10,10a,10b,11,12,12a-tetradecahydrocyclopenta[5,6]naphtho[1,2-f]indazol-1-yl methoxyacetate], the IC50 turned out to be 1.6 nM.

For the compound `COCC(=O)O[C@]1(C(=O)SCC(C)=O)CC[C@H]2[C@@H]3CCC4=Cc5c(cnn5-c5ccc(F)cc5)C[C@]4(C)[C@H]3[C@@H](O)C[C@@]21C` [Example 33, (1R,3aS,3bS,10aR,10bS,11S,12aS)-7-(4-Fluorophenyl)-11-hydroxy-10a,12a-dimethyl-1-{[(2-oxopropyl)thio]carbonyl}-1,2,3,3a,3b,4,5,7,10a,10 b,11,12,12a-tetradecahydrocyclopenta[5,6]naphtho[1,2-f]indazol-1-yl methoxyacetate], the IC50 was 2.7 nM.

For the compound `COCC(=O)O[C@]1(C(=O)SCF)CC[C@H]2[C@@H]3CCC4=Cc5c(cnn5-c5ccc(F)cc5)C[C@]4(C)[C@H]3[C@@H](O)C[C@@]21C` [Example 34, (1R,3aS,3bS,10aR,10bS,11S,12aS)-1-{[(Fluoromethyl)thio]carbonyl}-7-(4-fluoro-phenyl)-11-hydroxy-10a,12a-dimethyl-1,2,3,3a,3b,4,5,7,10,10a,10b,11,12,12a-tetradecahydrocyclopenta[5,6]naphtho[1,2-f]indazol-1-yl methoxyacetate], the IC50 is 1.7 nM.

In the case of `C[C@]12Cc3cnn(-c4ccc(F)cc4)c3C=C1CC[C@@H]1[C@@H]2[C@@H](O)C[C@@]2(C)[C@H]1CC[C@]2(OC(=O)C1CC1)C(=O)SCC#N` [Example 35, (1R,3aS,3bS,10aR,10bS,11S,12aS)-1-{[(Cyanomethyl)thio]carbonyl}-7-(4-fluoro-Phenyl)-11-hydroxy-10a,12a-dimethyl-1,2,3,3a,3b,4,5,7,10,10a,10b,11,12,12a-tetradecahydrocyclopenta[5,6]naphtho[1,2-f]indazol-1-yl cyclopropanecarboxylate], the half-inhibitory concentration (IC50) was found to be 5 nM.

`C[C@]12Cc3cnn(-c4ccc(F)cc4)c3C=C1CC[C@@H]1[C@@H]2[C@@H](O)C[C@@]2(C)[C@H]1CC[C@]2(OC(=O)C1CC1)C(=O)SCCO` [Example 36, (1R,3aS,3bS,10aR,10bS,11S,12aS)-7-(4-Fluorophenyl)-11-hydroxy-1-{[(2-hydroxy-ethyl)thio]carbonyl}-10a,12a-dimethyl-1,2,3,3a,3b,4,5,7,10,10a,10b,11,12,12a-tetradecahydrocyclopenta[5,6]naphtho[1,2-f]indazol-1-yl cyclopropanecarboxylate]: the IC50 was found to be 2.5 nM.

As for `C[C@]12Cc3cnn(-c4ccc(F)cc4)c3C=C1CC[C@@H]1[C@@H]2[C@@H](O)C[C@@]2(C)[C@H]1CC[C@]2(OC(=O)C1CC1)C(=O)SCC#CCO` [Example 37, (1R,3aS,3bS,10aR,10bS,11S,12aS)-7-(4-Fluorophenyl)-11-hydroxy-{[(4-hydroxybut-2-yn-1-yl)thio]carbonyl}-10a,12a-dimethyl-1,2,3,3a,3b,4,5,7,10,11a,10b,11,12,12a-tetradecahydrocyclopenta[5,6]naphtho[1,2-f]indazol-1-yl cyclopropanecarboxylate], the half-maximal inhibitory concentration (IC50) came out at 5.7 nM.

On to `C[C@]12Cc3cnn(-c4ccc(F)cc4)c3C=C1CC[C@@H]1[C@@H]2[C@@H](O)C[C@@]2(C)[C@H]1CC[C@]2(OC(=O)C1CC1)C(=O)SCF` [Example 38, (1R,3aS,3bS,10aR,10bS,11S,12aS)-1-{[(Fluoromethyl)thio]carbonyl}-7-(4-fluoro-phenyl)-11-hydroxy-10a,12a-dimethyl-1,2,3,3a,3b,4,5,7,10,10a,10b,11,12,12a-tetradecahydrocyclopenta[5,6]naphtho[1,2-f]indazol-1-yl cyclopropanecarboxylate], for which the IC50 is 5.7 nM.

The values above are taken from patent publication US8163724B2, “Glucocorticosteroids, processes for their preparation, pharmaceutical compositions containing them and their use in therapy” (AstraZeneca AB, priority 2007, dated 2012).
